# In PubChem BioAssay AID2060486 (Molecular Pharmacology Branch, DTP, NCI, 2025):
# Tested on: IGROV1 complex spheroids (HUVEC, MSC), viability % test/control
# Test: Anticancer human tumor IGROV1 cell line growth inhibition [GQUAD];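 also: spheroids exposed to compounds for 7 days before readout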
# Conditions: for IC50: curve of first compound; for viability, T/C: stronger effect = lower value
# Text: DNA G-quadruplex Stabilizer Agents in Combinations in Complex Spheroids
# A high-throughput screen of multi-cell type tumor spheroids was designed to identify active combinations of DNA G-quadruplex stabilizer agents and targeted small molecules. Complex spheroids include a stromal component modeled by human endothelial cells (HUVEC) and fibroblasts modeled by human mesenchymal stem cells (MSCs). The concentration ranges selected for each drug and investigational agent were based upon clinically achievable concentrations if the clinical Cmax of the agent was known.
# Compounds. The drugs and investigational agents: pidnarulex (CX-5461; NSC782164), APTO-253 (NSC789042), BRACO-19 (NSC847499), peposertib (NSC802822), ceralasertib (NSC780249), elimusertib (NSC800525), camonsertib (NSC841442), AZD-1390 (NSC803789), olaparib (NSC753686), talazoparib (NSC767125), ART-558 (NSC835418), sotorasib (NSC818433), MRTX-1133 (NSC836407), SN-38 (NSC673596), topotecan (NSC609699), etoposide (NSC141540), doxorubicin (NSC123127), gemcitabine (NSC613327), 5-fluorouracil (NSC19893), paclitaxel (NSC125973), vemurafenib (NSC761431), panobinostat (NSC761190), R-306465 (JNJ-16241199; NSC773264), adavosertib (NSC754352), TP-3654 (NSC805149), carboplatin (NSC241240), KSQ-4279 (NSC840948), and staurosporine (NSC755774) were obtained from the National Cancer Institute (NCI) Developmental Therapeutics Program Chemical Repository (34). The FDA-approved anticancer drug set is available from the NCI Developmental Therapeutics Program. […] The stock solutions were prepared in dimethyl sulfoxide (DMSO, Sigma-Aldrich, St. Louis, MO, cat. D2650) at 800-fold the tested concentration and stored at -70 degrees C prior to their use. All drugs and investigational agents were tested over a range starting from a high concentration at or near the clinical Cmax and decreasing in half-log increments. If the clinical Cmax for an agent had not been determined, the highest concentration tested was 10 microM.
# 2.3 Cell Culture. All cells were maintained in an incubator at 37 degrees C and 5% CO2 with 95% humidity. The PDC lines were cultured according to standard operating procedures established by the NCI PDMR. All PDCs were thawed and cultured in Matrigel-coated flasks prepared with a working solution of 1X Ham's F-12 nutrient mix, without supplementation (Invitrogen, cat. 11765054), 100 U/mL penicillin-streptomycin (Invitrogen, cat. 15140122), and 2.5% Matrigel (Corning Inc., cat. 354248) for the first three passages. The 857933-349-R-J2-PDC line was cultured in 6C/Colon 1B media, which includes advanced DMEM/F-12 (Thermo Fisher Scientific, cat. 12634028), 10 mM HEPES (Thermo Fisher Scientific, cat. 15630080), 1X GlutaMAX supplement (Thermo Fisher Scientific, cat. 35050061), 0.1 mg/mL primocin (InvivoGen, cat. ant-pm-2), 10% defined fetal bovine serum, heat inactivated (HyClone Laboratories Inc., cat. SH30070.03HI), 50% L-WRN conditioned media (ATCC, cat. CRL-3276), 1.25 mM N-Acetyl-L-cysteine (Sigma-Aldrich, cat. A9165), 10 mM nicotinamide (Sigma-Aldrich, cat. N0636), 1X B-27 supplement (Thermo Fisher Scientific, cat. 17504044), 1X N-2 supplement (Thermo Fisher Scientific, cat. 17502048), 10 microM Y-27632 dihydrochloride (Tocris Bioscience, cat. 1254), and 50 ng/mL human EGF recombinant protein (Thermo Fisher Scientific, cat. PHG0311). The 485176-168-R4-J1-PDC line was cultured in Panc media, which includes all 6C/Colon 1B media components plus 100 ng/mL human FGF-10 (Thermo Fisher Scientific, cat. 100-26), 500 nM SB-431542 (Selleckchem, cat. S1067), and gastrin (Tocris, cat. 3006).
# […]
# [1] = second compound 0.0316 µM, first compound 0.0316 µM
# [2] = second compound 0.0316 µM, first compound 0.1 µM
# [3] = second compound 0.0316 µM, first compound 0.316 µM
# [4] = second compound 0.0316 µM, first compound 1 µM
# [5] = second compound 0.0316 µM, first compound 3.16 µM
# [6] = second compound 0.0316 µM, first compound 10 µM
# [7] = second compound 0.1 µM, first compound 0.0316 µM
# [8] = second compound 0.1 µM, first compound 0.1 µM
# [9] = second compound 0.1 µM, first compound 0.316 µM
# [10] = second compound 0.1 µM, first compound 1 µM
# [11] = second compound 0.1 µM, first compound 3.16 µM
# [12] = second compound 0.1 µM, first compound 10 µM
# [13] = second compound 0.316 µM, first compound 0.0316 µM
# [14] = second compound 0.316 µM, first compound 0.1 µM
# [15] = second compound 0.316 µM, first compound 0.316 µM
# [16] = second compound 0.316 µM, first compound 1 µM
# [17] = second compound 0.316 µM, first compound 3.16 µM
# [18] = second compound 0.316 µM, first compound 10 µM
# [19] = second compound 1 µM, first compound 0.0316 µM
# [20] = second compound 1 µM, first compound 0.1 µM
# [21] = second compound 1 µM, first compound 0.316 µM
# [22] = second compound 1 µM, first compound 1 µM
# [23] = second compound 1 µM, first compound 3.16 µM
# [24] = second compound 1 µM, first compound 10 µM
# [25] = second compound 3.16 µM, first compound 0.0316 µM
# [26] = second compound 3.16 µM, first compound 0.1 µM
# [27] = second compound 3.16 µM, first compound 0.316 µM
# [28] = second compound 3.16 µM, first compound 1 µM
# [29] = second compound 3.16 µM, first compound 3.16 µM
# [30] = second compound 3.16 µM, first compound 10 µM
# [31] = second compound 10 µM, first compound 0.0316 µM
# [32] = second compound 10 µM, first compound 0.1 µM
# [33] = second compound 10 µM, first compound 0.316 µM
# [34] = second compound 10 µM, first compound 1 µM
# [35] = second compound 10 µM, first compound 3.16 µM
# [36] = second compound 10 µM, first compound 10 µM
structure (smiles),measurement,setting,value
CC(C)n1c(=O)n(C)c2cnc3cc(F)c(-c4ccc(OCCCN5CCCCC5)nc4)cc3c21 + CN(C)c1ccc(Nc2c3ccc(NC(=O)CCN4CCCC4)cc3nc3cc(NC(=O)CCN4CCCC4)ccc23)cc1,IC50,second compound 0.0316 µM,3960 nM
same,IC50,second compound 0.1 µM,3780 nM
same,IC50,second compound 0.316 µM,4030 nM
same,IC50,second compound 1 µM,1500 nM
same,IC50,second compound 3.16 µM,< 31.6 nM
same,IC50,second compound 10 µM,< 31.6 nM
same,"viability, T/C",[1],91.8%
same,"viability, T/C",[2],70.1%
same,"viability, T/C",[3],90.8%
same,"viability, T/C",[4],72.2%
same,"viability, T/C",[5],59.2%
same,"viability, T/C",[6],15.5%
same,"viability, T/C",[7],93.3%
same,"viability, T/C",[8],59.2%
same,"viability, T/C",[9],87.3%
same,"viability, T/C",[10],72%
same,"viability, T/C",[11],55.2%
same,"viability, T/C",[12],18%
same,"viability, T/C",[13],86.1%
same,"viability, T/C",[14],69.6%
same,"viability, T/C",[15],83.4%
same,"viability, T/C",[16],74.8%
same,"viability, T/C",[17],58.9%
same,"viability, T/C",[18],16.7%
same,"viability, T/C",[19],54.6%
same,"viability, T/C",[20],53.1%
same,"viability, T/C",[21],58.9%
same,"viability, T/C",[22],55.6%
same,"viability, T/C",[23],40%
same,"viability, T/C",[24],13%
same,"viability, T/C",[25],49.7%
same,"viability, T/C",[26],39.4%
same,"viability, T/C",[27],27%
same,"viability, T/C",[28],21.9%
same,"viability, T/C",[29],19.8%
same,"viability, T/C",[30],10.7%
same,"viability, T/C",[31],18.3%
same,"viability, T/C",[32],18.8%
same,"viability, T/C",[33],11.4%
same,"viability, T/C",[34],10.5%
same,"viability, T/C",[35],7.56%
same,"viability, T/C",[36],3.54%
CC1COCCN1c1cc(C2(O)CC3CCC(C2)O3)c2cnn(-c3ccn[nH]3)c2n1 (centres undefined) + CN(C)c1ccc(Nc2c3ccc(NC(=O)CCN4CCCC4)cc3nc3cc(NC(=O)CCN4CCCC4)ccc23)cc1,IC50,second compound 0.0316 µM,36.8 nM
same,IC50,second compound 0.1 µM,< 31.6 nM
same,IC50,second compound 0.316 µM,< 31.6 nM
same,IC50,second compound 1 µM,< 31.6 nM
same,IC50,second compound 3.16 µM,< 31.6 nM
same,IC50,second compound 10 µM,< 31.6 nM
same,"viability, T/C",[1],54.8%
same,"viability, T/C",[2],20%
same,"viability, T/C",[3],7.64%
same,"viability, T/C",[4],5.68%
same,"viability, T/C",[5],2.88%
same,"viability, T/C",[6],1.63%
same,"viability, T/C",[7],45%
same,"viability, T/C",[8],22.7%
same,"viability, T/C",[9],9.08%
same,"viability, T/C",[10],5.11%
same,"viability, T/C",[11],3.48%
same,"viability, T/C",[12],1.19%
same,"viability, T/C",[13],45.8%
same,"viability, T/C",[14],19%
same,"viability, T/C",[15],9.25%
same,"viability, T/C",[16],4.51%
same,"viability, T/C",[17],4.65%
same,"viability, T/C",[18],1.93%
same,"viability, T/C",[19],42.6%
same,"viability, T/C",[20],17.5%
same,"viability, T/C",[21],8.86%
same,"viability, T/C",[22],5.16%
same,"viability, T/C",[23],4.18%
same,"viability, T/C",[24],1.58%
same,"viability, T/C",[25],38.7%
same,"viability, T/C",[26],13.4%
same,"viability, T/C",[27],8.17%
same,"viability, T/C",[28],4.73%
same,"viability, T/C",[29],4%
same,"viability, T/C",[30],1.78%
same,"viability, T/C",[31],17%
same,"viability, T/C",[32],10.2%
same,"viability, T/C",[33],5.93%
same,"viability, T/C",[34],4.42%
same,"viability, T/C",[35],3.55%
same,"viability, T/C",[36],1.05%
